Laboratory results reported in patent EP1394169A1, “Organometallic complex” (Hwu, Jih-Ru, priority 2002, dated 2004).

Tests used:
[1] = tested on: supercoiled circular φX174 RFI DNA; experiment: Single-strand DNA cleavage of supercoiled circular DNA under 350 nm UV irradiation (agarose gel); type: biochemical; conditions: in the dark
[2] = tested on: supercoiled circular φX174 RFI DNA; experiment: as above; type: biochemical; conditions: for (% form I) / (% form II) / (% form II)/ (% form I) / DNA forms observed on gel: 350 nm UV 2.0 h
Description: Cleavage at various pH's: A reaction mixture (10 µL) containing supercoiled circular φX174 RFI DNA stock solution (50 µM/base pair), complex 1 (5.0 µM), and a phosphate buffer (0.10 M, pH 5.0, 6.0, 7.0, and 8.0) in a Pyrex vial was preincubated at 37°C. The reaction mixture was then irradiated with 350 nm UV light (32-W) for 2.0 h at room temperature. After adding a gel-loading buffer (025% bomophenol blue, 0.25% xylene cyanol, and 30% glycerol), the reaction mixture was loaded on a 1% agarose gel, followed by ethidium bromide staining. The gel was visualized by a 312-nm UV transilluminator and photographed by a FB-PDC-34 camera. Supercoiled circular DNA and cleaved DNA were clearly seen from the gel.
Cleavage at various complex concentrations: A reaction mixtures (10 µL) containing supercoiled circular φX174 RFI DNA stock solution (50 µM/base pair), complex 1 (0.050―100 µM), and a phosphate buffer (0.10 M, pH 6.0) in a Pyrex vial was preincubated at 37°C. The mixture was irradiated with 350 nm UV light (32-W) for 2.0 h at room temperature. After adding a gel-loading buffer (0.25% bromophenol blue, 0.25% xylene cyanol, and 30% glycerol), the reaction mixture was loaded on a 1% agarose gel, followed by ethidium bromide staining. The gel was visualized by a 312-nm UV transilluminator and photographed by a FB-PDC-34 camera. Supercoiled circular DNA (form I) and cleaved DNA (form II) were clearly seen from the gel.

[3] = tested on: 2'-deoxyguanosine; experiment: Binding and cyclization reaction with 2'-deoxyguanosine (LC-mass)
Description: As a comparison, a reaction involving 2'-deoxyguanosine and complex 1 was carried out. Complex 1 bound to the C-2 amino on a guanine to form a Pt-N covalent bond. […] As a result, cleavage at a guanine site required assistance from an external base (e.g., piperidine). In another experiment, an excess of complex 1 was added to a 2'-deoxyguanosine solution, followed by piperidine treatment. An intermediate was detected, at a yield of 42%, with a signal at 1063.9 for (M + H^+) as analyzed by an electron spray ionization detector in LC-mass chromatogram. The intermediate was able to give a cyclization product, at a yield of 80%, with a signal at 792.0 for (M + H^+) upon 350-nm UV light irradiation, but not in the dark. The scheme below depicts the just-described reaction: [drawing 5]

[4] = tested on: double helical oligonucleotide d(ATAT)2; experiment: DNA binding and cleaving mechanism with oligonucleotide (LC-mass); conditions: 1:1, phosphate buffer pH 6.0, in the dark for 2.0 h
Description: A double helical oligonucleotide d(ATAT)2 was prepared and added to a phosphate buffer solution (pH = 6.0) containing complex 1(1:1). The solution was kept in the dark for 2.0 h. An intermediate was detected, at a yield of 57%, with a signal at 650.1 for (M + H^+) as analyzed by an electron spray ionization detector in LC-mass chromatogram. Then, the solution was irradiated with 350 nm-UV light for 2.0 h at room temperature. A product was detected with a signal at 456.1 for (M + H^+). […] Then an intramolecular cyclization took place to remove the DMSO and to form a covalent bond between the N-7 nitrogen atom and the platinum in complex 1, resulting in the oligonucleotide cleavage.

[5] = tested on: 160-bp dsDNA fragment was prepared from the 501―660 fragment of pBR322 DNA; experiment: Site-specific DNA cleavage of 5'-32P-labeled 160-bp dsDNA fragment (polyacrylamide/urea gel, autoradiogram); type: biochemical; conditions: complex 20―100 µM, 350-nm UV 2.0 h
Description: A 160-bp dsDNA fragment was prepared from the 501―660 fragment of pBR322 DNA. It was amplified by the polymerase chain reaction (Bailly & Waring (1995) J. Am. Chem. Soc. 117:7311; Bailly et al. (1993) J. Am Chem. Soc. 115: 3784; and Sayers & Waring (1993) Biochemistry 32: 9094), and labeled at the 5'-terminus with γ-[^32P]-ATP and T4 polynucleotide kinase. A reaction mixture containing a 5'-terminus labeled ^32P-DNA solution, a phosphate buffer (0-10 M, pH 6.0), and complex 1 (20―100 µM) in a Pyrex vial was preincubated at 37°C for 30 min. The reaction mixture was irradiated with 350-nm UV light under aerobic conditions for 2.0 h at room temperature. The bound metal complexes on DNA fragments were removed by using 0.30 N NaCN (pH = 11) at 37°C for 8.0 h (Schwartz et al. (1990) J. Am. Chem. Soc. 112: 3673; and Zou et al. (1994) Biochemistry 33: 5404). The reaction mixture was then quenched with either a gel-loading buffer or 95% ethanol. […] The samples and the Maxam-Gilbert markers were analyzed using 10% polyacrylamide/8.0 M urea gel. […] Quantitation of relative intensities of DNA fragments was performed using a Microtek scanner and NIH 1.60 image program.
The detected DNA fragments were compared with Maxam-Gilbert markers on an autoradiogram, and quantitated by a computer-assisted program.

C[S+](C)(=O)[Pt-2]1([Cl])[O][n+]2ccccc2[S]1 (centres unmarked) [complex 1, PtCl(DMSO)[η^2-C5H4SN(O)]]
(% form I) ([1]; complex 500 µM, pH 6.0): 93%
(% form II) ([1]; complex 500 µM, pH 6.0): 7.0%
(% form II)/ (% form I) ([1]; complex 500 µM, pH 6.0): 0.070
cleavage of single-strand DNA [1]: did not occur
(% form I) ([2]; complex 1.0 µM, pH 6.0): 37%
(% form II) ([2]; complex 1.0 µM, pH 6.0): 63%
(% form II)/ (% form I) ([2]; complex 1.0 µM, pH 6.0): 1.7
(% form I) ([2]; complex 2.5 µM, pH 6.0): 20%
(% form II) ([2]; complex 2.5 µM, pH 6.0): 80%
(% form II)/ (% form I) ([2]; complex 2.5 µM, pH 6.0): 4.0
(% form I) ([2]; complex 5.0 µM, pH 6.0): 7.1%
(% form II) ([2]; complex 5.0 µM, pH 6.0): 93%
(% form II)/ (% form I) ([2]; complex 5.0 µM, pH 6.0): 13
DNA forms observed on gel ([2]; complex 5.0 µM, pH 5.0): only cleaved DNA was observed
DNA forms observed on gel ([2]; complex 5.0 µM, pH 6.0): only cleaved DNA was observed
DNA forms observed on gel ([2]; complex 5.0 µM, pH 7.0): only cleaved DNA was observed
DNA forms observed on gel ([2]; complex 5.0 µM, pH 8.0): both supercoiled circular DNA and cleaved DNA were observed
DNA cleaving activity ([2]; concentration as low as 1.0 µM): very strong DNA cleaving activity
yield of intermediate (complex bound to guanine) ([3]; excess of complex, followed by piperidine treatment): 42%
yield of cyclization product from intermediate ([3]; upon 350-nm UV light irradiation): 80%
yield of intermediate (complex bound to adenine) [4]: 57%
site of DNA cleavage ([5]; with hot piperidine treatment): cleaved DNA at purine residues
site of DNA cleavage ([5]; without piperidine treatment): at adenine residues
